Reference: the supplement of paper PMC11061612

Assays:
[1] = system: 8-MG-BA (Glioblastoma); assay: Bliss excess, mean over the matrix (fraction); higher = more synergy
Method in brief: (§1)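 Cell lines in DMEM/F12 or RPMI with 10% FBS were plated in 1536-well plates, held 24 hours at 37°C, 5% CO2, then given two-drug dose matrices for 72 hours (DMSO typically 0.2%). Viability was read by CellTiter-Glo 2.0 luminescence and scaled as inhibition from 0 (vehicle wells) to 1 (blank wells). Combination Emax is the second-highest inhibition in the matrix; Bliss excess is observed combination effect minus expected EA + EB − EA·EB, EA and EB being single-agent effects.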

[2] = system: CAL-29 (Bladder Carcinoma); assay: as above
Method in brief: as §1

[3] = system: NCI-H2066 (Squamous Cell Lung Carcinoma); assay: as above
Method in brief: as §1

[4] = system: 8-MG-BA (Glioblastoma); assay: combination Emax (second highest fraction inhibited in the dose matrix, 72 h); higher = more inhibition; extreme values may be limits of the assay
Method in brief: as §1

[5] = system: ARH-77 (Non-Cancerous); assay: as above
Method in brief: as §1

[6] = system: BICR22 (Oral Cavity Carcinoma); assay: as above
Method in brief: as §1

[7] = system: CAPAN-2 (Pancreatic Carcinoma); assay: as above
Method in brief: as §1

[8] = system: CAS-1 (Glioblastoma); assay: as above
Method in brief: as §1

[9] = system: COLO-824 (Breast Carcinoma); assay: as above
Method in brief: as §1

[10] = system: GI-ME-N (Neuroblastoma); assay: as above
Method in brief: as §1

[11] = system: JSC-1 (B-Cell Non-Hodgkin's Lymphoma); assay: as above
Method in brief: as §1

[12] = system: KARPAS-422 (B-Cell Non-Hodgkin's Lymphoma); assay: as above
Method in brief: as §1

[13] = system: NCI-H1581 (Non-Small Cell Lung Carcinoma); assay: as above
Method in brief: as §1

[14] = system: NCI-H1650 (Lung Adenocarcinoma); assay: as above
Method in brief: as §1

[15] = system: NCI-H2066 (Squamous Cell Lung Carcinoma); assay: as above
Method in brief: as §1

[16] = system: NCI-H64 (Small Cell Lung Carcinoma); assay: as above
Method in brief: as §1

[17] = system: NY (Osteosarcoma); assay: as above
Method in brief: as §1

[18] = system: PA-1 (Ovarian Carcinoma); assay: as above
Method in brief: as §1

[19] = system: SISO (Cervical Carcinoma); assay: as above
Method in brief: as §1

[20] = system: TT2609-C02 (Thyroid Gland Carcinoma); assay: as above
Method in brief: as §1
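Throughout, for Bliss excess, mean over the matrix: after 72 h of two-drug dosing.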

Row | Compound | Bliss excess [1] | Bliss excess [2] | Bliss excess [3] | combination Emax [4] | combination Emax [5] | combination Emax [6] | combination Emax [7] | combination Emax [8] | combination Emax [9] | combination Emax [10] | combination Emax [11] | combination Emax [12] | combination Emax [13] | combination Emax [14] | combination Emax [15] | combination Emax [16] | combination Emax [17] | combination Emax [18] | combination Emax [19] | combination Emax [20]
1 | Cc1cc2ncnn2cc1Nc1ncc2c(n1)n(C1CCOCC1)c(=O)n2C [AZD7648] + O=C(c1cc(Cc2n[nH]c(=O)c3ccccc23)ccc1F)N1CCN(C(=O)C2CC2)CC1 [Olaparib] (first compound max 10 µM, 7x7, partner max 10 µM) | -0.0184 | -0.0288 | -0.0624 | 0.329 | 0.522 | 0.141 | 0.0547 | 0.271 | 0.279 | 0.141 | 0.0503 | 0.55 | 0.168 | 0.0772 | 0.295 | 0.134 | 0.14 | 0.374 | 0.207 | 0.156
2 | Cc1c2c(nn1C)CSCc1cc(n(C)n1)CSc1cc(c3ccccc3c1)OCCCc1c(C(=O)O)n(C)c3c-2c(Cl)ccc13 [AZD5991] + CN(C)CCCOc1ccc(-c2ccc3ncc4c(c3c2)n(C2CCOCC2)c(=O)n4C)cn1 [AZD0156] (first compound max 1 µM, 7x7, partner max 1 µM) | 0.0044 | 0.0308 | -0.0084 | 0.586 | 0.867 | 0.323 | 0.276 | 0.532 | 0.411 | 0.307 | 1 | 0.982 | 0.976 | 0.2 | 0.234 | 0.346 | 0.399 | 0.855 | 0.201 | 0.212
3 | CN(CCO)CC[C@H](CSc1ccccc1)Nc1ccc(S(=O)(=O)NC(=O)c2ccc(N3CCC([C@@H](O)c4ccccc4-c4ccc(Cl)cc4)CC3)cc2)cc1S(=O)(=O)C(F)(F)F [AZD4320] + Cc1cc2ncnn2cc1Nc1ncc2c(n1)n(C1CCOCC1)c(=O)n2C [AZD7648] (first compound max 1 µM, 7x7, partner max 10 µM) | -0.0188 | -0.0074 | 0.0299 | 0.168 | 0.841 | 0.594 | 0.653 | 0.171 | 1 | 0.153 | 0.246 |  | 0.271 | 0.245 | 0.885 | 0.964 | 0.156 | 0.61 | 0.0433 | 0.182
4 | NC1(C(=O)N[C@@H](CCO)c2ccc(Cl)cc2)CCN(c2ncnc3[nH]ccc23)CC1 [Capivasertib] + Cn1cnc2c(F)c(Nc3ccc(Br)cc3Cl)c(C(=O)NOCCO)cc21 [Selumetinib] (first compound max 10 µM, 7x7, partner max 10 µM) | 0.0362 | -0.0058 | -0.0867 | 0.592 | 0.674 | 0.949 | 0.504 | 0.682 | 0.595 | 0.377 | 0.724 | 0.58 | 0.513 | 0.358 | 0.685 | 0.321 | 0.305 | 0.884 | 0.269 | 0.542
5 | CCc1c2c(nc3ccc(O)cc13)-c1cc3c(c(=O)n1C2)COC(=O)[C@]3(O)CC [SN-38] + O=C(c1cc(Cc2n[nH]c(=O)c3ccccc23)ccc1F)N1CCN(C(=O)C2CC2)CC1 [Olaparib] (first compound max 0.3 µM, 7x7, partner max 10 µM) | 0.0671 |  | -0.0477 | 0.986 | 0.997 | 0.95 | 0.137 | 0.609 |  | 0.494 | 0.973 | 0.957 | 0.722 | 0.575 | 0.0964 | 0.396 | 0.91 | 0.848 | 0.932 | 
6 | CN(CCO)CC[C@H](CSc1ccccc1)Nc1ccc(S(=O)(=O)NC(=O)c2ccc(N3CCC([C@@H](O)c4ccccc4-c4ccc(Cl)cc4)CC3)cc2)cc1S(=O)(=O)C(F)(F)F [AZD4320] + CN(C)CCCOc1ccc(-c2ccc3ncc4c(c3c2)n(C2CCOCC2)c(=O)n4C)cn1 [AZD0156] (first compound max 1 µM, 7x7, partner max 1 µM) | -0.0146 | -0.0187 | -0.092 | 0.0798 | 0.793 | 0.546 | 0.634 | 0.229 | 1 | 0.156 | 0.116 | 0.957 | 0.19 | 0.0865 | 0.619 | 0.973 | 0.0862 | 0.497 | 0.0433 | 0.148
7 | Cc1nc(Nc2ncc(C(=O)Nc3c(C)cccc3Cl)s2)cc(N2CCN(CCO)CC2)n1 [Dasatinib] + CC(=O)Nc1cccc(-n2c(=O)n(C3CC3)c(=O)c3c(Nc4ccc(I)cc4F)n(C)c(=O)c(C)c32)c1 [Trametinib] (first compound max 2 µM, 7x7, partner max 1 µM) | 0.0219 | 0.0133 | -0.0033 | 0.756 | 0.635 | 0.615 | 0.892 | 0.946 | 0.232 | 0.49 | 0.543 | 0.469 | 0.552 | 0.419 | 0.402 | 0.185 | 0.738 | 0.936 | 0.157 | 0.748
8 | COc1nnc2ccc(N3CCC(c4ccc(OCCN5CCN(C)C(=O)[C@H]5C)cc4)CC3)nn12 [AZD5153] + C=CCn1c(=O)c2cnc(Nc3ccc(N4CCN(C)CC4)cc3)nc2n1-c1cccc(C(C)(C)O)n1 [AZD1775] (first compound max 1 µM, partner max 1 µM) | -0.0571 | -0.0699 | -0.0503 | 0.801 | 0.968 | 0.489 | 0.328 | 0.658 | 0.863 | 0.393 | 0.901 | 0.888 | 0.866 | 0.477 | 0.475 | 0.884 | 0.567 | 0.973 | 0.65 | 0.622
9 | CC(=O)c1c(C)c2cnc(Nc3ccc(N4CCNCC4)cn3)nc2n(C2CCCC2)c1=O [Palbociclib] + CN(CC[C@H](CSC1=CC=CC=C1)NC2=C(C=C(C=C2)S(=O)(=O)NC(=O)C3=CC=C(C=C3)N4CCC(CC4)[C@H](C5=CC=CC=C5C6=CC=C(C=C6)Cl)O)S(=O)(=O)C(F)(F)F)CCO [AZD4320] (first compound max 10 µM, 7x7, partner max 1 µM) | -0.001 | -0.0702 |  | 0.337 | 0.899 |  |  | 0.405 | 1 | 0.211 | 0.59 |  |  | 0.184 |  |  |  | 0.872 | 0.126 | 0.29
10 | Cc1c2c(nn1C)CSCc1cc(n(C)n1)CSc1cc(c3ccccc3c1)OCCCc1c(C(=O)O)n(C)c3c-2c(Cl)ccc13 [AZD5991] + Cn1cnc2c(F)c(Nc3ccc(Br)cc3Cl)c(C(=O)NOCCO)cc21 [Selumetinib] (first compound max 1 µM, 7x7, partner max 3 µM) | 0.098 | 0.0436 | 0.0459 | 0.739 |  | 0.959 | 0.482 | 0.286 | 0.406 | 0.421 | 1 | 0.998 | 0.991 | 0.16 | 0.258 | 0.295 | 0.416 | 0.865 | 0.173 | 0.569
11 | C=CCn1c(=O)c2cnc(Nc3ccc(N4CCN(C)CC4)cc3)nc2n1-c1cccc(C(C)(C)O)n1 [AZD1775] + C[C@@H]1COCCN1C2=NC(=NC(=C2)C3(CC3)[S@](=N)(=O)C)C4=C5C=CNC5=NC=C4 [AZD6738] (first compound max 1 µM, partner max 10 µM) | -0.032 | -0.006 | 0.0216 |  | 1 | 0.799 | 0.486 | 0.657 | 0.851 | 0.548 | 0.905 | 0.786 | 0.771 | 0.53 | 0.605 | 0.936 | 0.665 | 0.883 | 0.822 | 0.393
12 | COc1nnc2ccc(N3CCC(c4ccc(OCCN5CCN(C)C(=O)[C@H]5C)cc4)CC3)nn12 [AZD5153] + CN(CC[C@H](CSC1=CC=CC=C1)NC2=C(C=C(C=C2)S(=O)(=O)NC(=O)C3=CC=C(C=C3)N4CCC(CC4)[C@H](C5=CC=CC=C5C6=CC=C(C=C6)Cl)O)S(=O)(=O)C(F)(F)F)CCO [AZD4320] (first compound max 1 µM, 7x7, partner max 1 µM) | 0.002 | -0.0125 |  | 0.772 | 0.965 |  |  | 0.587 | 1 | 0.246 | 0.71 |  |  | 0.419 |  |  |  | 0.9 | 0.419 | 0.424
13 | C[C@@H](c1ccc2nccn2c1)n1nnc2ncc(-c3cnn(C)c3)nc21 [Savolitinib] + CN(CC[C@H](CSC1=CC=CC=C1)NC2=C(C=C(C=C2)S(=O)(=O)NC(=O)C3=CC=C(C=C3)N4CCC(CC4)[C@H](C5=CC=CC=C5C6=CC=C(C=C6)Cl)O)S(=O)(=O)C(F)(F)F)CCO [AZD4320] (first compound max 1 µM, 7x7, partner max 1 µM) | -0.0399 | -0.0647 |  | 0.116 | 0.82 |  |  | 0.176 | 1 | 0.229 | 0.117 |  |  | 0.182 |  |  |  | 0.465 | 0.0887 | 0.174
